{"source": "patent US20080260834A1", "about": "“VITAMIN D3 ANALOG LOADED POLYMER FORMULATIONS FOR CANCER AND NEURODEGENERATIVE DISORDERS” (priority 2002, published 2008)", "key": {"B16 (malignant melanoma)": {"tested_on": "B16 (malignant melanoma)", "assay": "In vitro proliferation assay, B16", "format": "cell-based, murine", "description": "(§1) All cell lines were grown and propagated in RPMI medium at 37° C. in 5% CO2. Cultured cells were trypsinized and plated in triplicate at 10,000 cells/well in Falcon 24 well tissue culture plates. […] When control wells neared confluence, cell number was determined for each well as an average of two readings on a ZM Coulter Counter Results are expressed as the average cell number for each drug treatment group divided by the average cell number for the drug free control group (designated as % OF CONTROL) vs. the concentration of drug or analog."}, "[1]": {"tested_on": "RENCA (renal cell carcinoma)", "assay": "In vitro proliferation assay, RENCA", "format": "cell-based, murine", "description": "as §1"}, "[2]": {"tested_on": "EMT6 (breast cell carcinoma)", "assay": "In vitro proliferation assay, EMT6", "format": "cell-based, murine", "description": "as §1"}, "CT26 (colon carcinoma)": {"tested_on": "CT26 (colon carcinoma)", "assay": "In vitro proliferation assay, CT26", "format": "cell-based, murine", "conditions": "at 1000 nM against CT26 (p<0.01, data not shown)", "description": "as §1"}, "B16 melanoma cells": {"tested_on": "B16 melanoma cells", "assay": "Exposure time dependence study, B16", "format": "cell-based, murine", "conditions": "10 μM; exposure 1, 2, 10, 24, 96 hours; counted at 96 hours", "description": "In a series of exposure time dependence studies, B16 melanoma cells were trypsinized, suspended, and plated as before. […] Then at 1, 2, 10, 24, and 96 hours, the drug containing media was removed and replaced with fresh media containing only solvent. […] At the 96 hour time point, all groups were trypsinized and cell number was determined as before."}, "[3]": {"assay": "Calcemic activity, daily intraperitoneal injections in mice", "format": "in vivo, C57/B16 mice", "conditions": "for weight loss: 7 days; for blood ionized calcium: day 7", "description": "Twenty-seven C57/B16 mice (n=3 per group), received daily intraperitoneal injections solution containing one of the three drugs at on of the following doses: […] (corresponding to 0.02, 0.2, or 2 mg/day respectively). Nine animals received daily intraperitoneal injections of solvent only to serve as control. Animal weights were monitored daily at the time of injection. On day 7, all animals were sacrificed and blood was collected via cardiac puncture and quantitatively analyzed for ionized calcium content at the Critical Care Lab at Johns Hopkins Hospital."}, "[4]": {"assay": "Hypercalcemic toxicity of wafers, intraflank vs intracranial", "format": "in vivo,  mice", "conditions": "5 mg pCPP:SA wafer loaded 0.1%; for weight loss: 7 days; for blood ionized calcium levels: day 7", "from_the_text": "Animal weights were monitored daily and blood was collected for quantitative ionized calcium analysis via cardiac puncture on day 7 post-implantation."}, "[5]": {"conditions": "cited from earlier work"}}, "note": "Read-outs that look alike come from different tables or passages of the source.", "data": [{"smiles": "C=C1/C(=C\\C=C2/CCCC3(C)[C@@H]([C@H](C)CCCC(C)(C)O)CC[C@@H]23)C[C@@H](O)CC1O", "note": "(some centres unmarked) [1,25 D3, 1,25-Dihydroxyvitamin D3]", "values": [{"measurement": "EC50", "setting": "B16 (malignant melanoma); Mus musculus", "value": 15, "unit": "nM"}, {"measurement": "antiproliferative activity", "setting": "B16 (malignant melanoma); at 10 nM against B16 (p<0.03)", "value": "significant antiproliferative activity"}, {"measurement": "EC50", "setting": "[1]; Mus musculus, Renca", "value": 153, "unit": "nM"}, {"measurement": "antiproliferative activity", "setting": "[1]; at 10 nM against RENCA (p<0.03)", "value": "significant antiproliferative activity"}, {"measurement": "EC50", "setting": "[2]; Mus musculus, EMT6", "value": 160, "unit": "nM"}, {"measurement": "antiproliferative activity", "setting": "[2]; at 100 nM against EMT6 (p<0.01)", "value": "significant antiproliferative activity"}, {"measurement": "antiproliferative activity", "setting": "CT26 (colon carcinoma)", "value": "significant antiproliferative activity"}, {"measurement": "exposure time dependence of antiproliferative activity", "setting": "B16 melanoma cells", "value": "exposure time dependent"}, {"measurement": "weight loss", "setting": "[3]; 1 mg/kg/day i.p.", "value": "substantial weight loss"}, {"measurement": "blood ionized calcium", "setting": "[3]; 1 mg/kg/day i.p.", "value": "dramatic rises in blood ionized calcium levels"}, {"measurement": "weight loss", "setting": "[3]; 10 mg/kg/day i.p.", "value": "substantial weight loss"}, {"measurement": "blood ionized calcium", "setting": "[3]; 10 mg/kg/day i.p.", "value": "dramatic rises in blood ionized calcium levels"}, {"measurement": "condition of the animals", "setting": "[3]; 100 mg/kg/day i.p.", "value": "severely compromised"}, {"measurement": "weight loss", "setting": "[4]; intracranial", "value": "substantial weight loss"}, {"measurement": "blood ionized calcium levels", "setting": "[4]; intracranial", "value": "dramatic rises in blood ionized calcium levels"}, {"measurement": "weight loss", "setting": "[4]; intraflank", "value": "substantial weight loss"}, {"measurement": "blood ionized calcium levels", "setting": "[4]; intraflank", "value": "dramatic rises in blood ionized calcium levels"}, {"measurement": "serum calcium", "setting": "[5]; 60 ng/day i.c.v., after 6 days", "value": "rise in serum calcium"}, {"measurement": "weight loss", "setting": "[5]; 120 ng/day i.c.v.", "value": "weight loss was observed"}, {"measurement": "condition of the animals", "setting": "[5]; 240 ng/day i.c.v., by day 6", "value": "severely compromised"}]}]}
